“Also recorded” adds a separate entry of the source.
Experiments:
[1] = system: alpha and beta isoforms of the estrogen receptor; settings: cited from earlier work
Atoh1 promoter/enhancer = experiment: Comparison of constructs (Atoh1 promoter/enhancer binding, mRNA transcription, protein translation); type: cell-based
Description: FIG. 1A-FIG. 1E are schematics depicting constructs used to generate an inducible Atoh1 fusion protein. FIG. 1A depicts the construct termed Flag-Atoh1-ER-DsRed. In order to measure the translocation of the fusion protein between the cytoplasm and […], a construct was engineered to include the DsRed transgene. To aid in the detection of Atoh1 (Atonal homolog 1), several experimental constructs were engineered to include one or two consecutive flag-tagged sequences (Vallier, Mancip et al. 2001). To obtain the tamoxifen sensitive Atoh1 construct, PCR cloning primers were designed so that 1) an EcoRI site was placed on the 5′ end and a Kozac sequence (CACC) was placed upstream of the Atoh1 start codon; 2) the Atoh1 stop codon (TAG) was deleted; 3) the flag tagged Atoh1 sequence was linked to an Estrogen Receptor (ER) sequence by the sequence […] (SEQ ID NO: 1) encoding a polypeptide linker; 4) the ER stop codon (TAG) was deleted; 5) the ER sequence was linked to a DsRed sequence by the sequence […] (SEQ ID NO: 2) encoding a polypeptide linker; and 6) a Not I site was included on the 3′ end. The linker sequences were designed to translate into multiple proline sequences, which provide an increased degree of freedom for the fusion protein subunits. […]

[2] = system: Atoh1-ER-DsRed fusion protein; experiment: Nuclear translocalization assay (DsRed fluorescence of isolated nuclei); type: cell-based; settings: for DsRed fluorescence in the nuclear fraction: HEK cells transfected with CMV-Atoh1-ER-DsRed, p<0.05; for localization of Atoh1-ER-DsRed to the nucleus: HEK cells, graded doses; for time to complete cytoplasmic localization of the fusion protein after removal from the culture media: removal of 4OHT/tamoxifen from culture media
Experimental: Constructs were generated to express inducible Atoh1-ER fusion proteins (FIG. 1).
HEK cells were cultured until 50% confluent in 6-well culture dishes (type) then subjected to transfection using 3:1 target DNA to Fugene 6 Transfection Reagent (ROCHE). […] Cells were then processed for cytosolic and nuclear fractionation (BioVision). The isolated nuclear fraction collected from each of 5 sample wells per condition was mounted to a coverslip and average pixel density from 5 regions of interest (206.5×165.2 pixel at 20× magnification) was measured with a Cy3 ([…]) filter on a Zeiss epifluorescent microscope using MetaMorph software.

[3] = system: Atoh1-ER-DsRed fusion protein; experiment: Nuclear localization in electroporated cochlear spheres; type: cell-based, mice
Description: (DAPI=blue; DsRed fluorescence=red). […] Yellow box highlights optimal conditions (+=nuclear localization in […] of cells; −/+≈50% nuclear localization; −=>0.10% nuclear localization.
Cochlear derived progenitor cells were generated and floating aggregates (cochlear spheres) propagated as previously described (Oshima et al., Journal of the Association for Research in Otolaryngology, 2007. 8(1): 18-31) with the following modifications. Cochleas were isolated from litters of P0-P3 ROSA26-GFP mice, the organs of Corti were dissected, pooled, trypsinized, triturated, and centrifuged. The pellet was re-suspended in SFM, filtered through a […] cell strainer, and cultured for 5 days in this same media supplemented with growth factors (10 ng/ml of FGF, IGF, EGF, Heparin sulfate). Floating aggregates were collected, centrifuged, triturated using a 100 μl pipette, re-suspended in 300 μl Optimem, and electroporated (8 pulses; 25 V; duration, 50 ms; interval, 100 ms with 2 mg/ml DNA in water, and incubated in 3:1 Fugene 6 overnight) using 50 μg of plasmid DNA. […] Finally, spheres from each of these groups were centrifuged, adhered to glass coverslips by incubation for 2-4 hours at 37° C. on glass coverslips coated with 1:1 poly-lysine/polyornithine, fixed in 4% paraformaldehyde for 20 minutes, washed three times in PBS, and stored at 4° C. for later analysis.

[4] = system: Atoh1 5′ enhancer/promoter region; experiment: Luciferase assay of Atoh1 enhancer/promoter binding; type: cell-based; settings: HEK cells stably transfected with Atoh1enhancer-luciferase and transiently with Atoh1-ER-DsRed; 72 hrs, increasing doses
Experimental: The stably transfected HEK cells were transiently transfected with either the cmv.Atoh1-ER-DsRed construct or a cmv.DsRed-ER control construct. […] All cells were also co-transfected with Renilla transfection controls.
The Atoh1 5′ enhancer/promoter region (Helms, Abney et al. 2000) was cloned into the MCS of the pGL3-Promoter Luciferase Reporter Vector (Promega), and was stably expressed on a HEK cell line using selection to […]. These cells were grown until 80% confluent on 6-well plates, and then transiently transfected with either the cmv.Atoh1 control vector, the cmv.Atoh1-ER-DsRed construct, or a cmv.DsRed-ER negative control construct using 3:1 target DNA to Fugene 6 Transfection Reagent. All cells were also co-transfected with Renilla transfection controls. […] Firefly luciferase activity was measured in a manual TD-20/20 Luminometer (Turner Designs).

Atoh1 mRNA = Atoh1 mRNA expression by RT-PCR and qPCR; type: cell-based; settings: HEK cells transiently transfected with Atoh1-ER-DsRed; different doses
Experimental: Transiently transfected HEK cells were incubated with different doses of 4OHT.
Next, total RNA was extracted from the cells by adding 1 ml Trizol reagent (Invitrogen) to each well for 5 min, cells were scraped into a 1.5 ml tube (1 tube/well), incubated with […] chloroform (in hood) for 2 min centrifuged for 20 min at 12,000 g at 4° C., supernatant was collected in a new 1.5 ml tube, incubated with 1:1 equivalent volume of 2-propanol equal volume to supernatant, and centrifuged through the RNeasy mini kit columns at 8000 g for 15 sec. RNA was eluted from the column by adding […] RW1, centrifuging the column at 8000 g 15 s, adding […] washes of RPE2 and re-centrifuging at 8000 g 15 s, adding one spin to dry membrane (10,000 g, 1 min), and eluting the RNA by adding […] RNAse free water into new 1.5 ml tube and centrifuging a final time at 8000 g for 15 s. […]
For quantitative PCR (qPCR) analysis, 300 μL of qPCR Master Mix (Invitrogen) was added to a PCR tube with 300 μL dH2O, which was then divided into 5 tubes (120 μL each). […] Quantitative PCR was performed and the amount of RNA was determined Delta delta Ct measurements were calculated for each treatment group, and then were normalized to fold change from groups incubated in the absence of tamoxifen. […]

Atoh1 protein = experiment: Western blot analysis of Atoh1 protein; type: cell-based; settings: transiently transfected HEK cells; different doses for 72 hr
Description: Whole cell protein was collected and processed for Western blot analysis. Positive control samples were transfected with a flag-tagged Atoh1 construct under control of a cmv promoter (flagAtoh1) and negative control samples were transfected with the DsRedER construct.
Control samples were similarly transfected with either DsRed-ER (negative control) or a positive control vector (cmv.flagAtoh1). Cells were lysed, the whole cell protein was collected and processed for Western blot analysis using either anti-Atoh1polyclonal antibody (Developmental Studies Hybridoma Bank) or a polyclonal anti-b-actin antibody (Sigma).

myosin 7a = experiment: Myosin 7a immunolabeling in transfected HEI OC1 cells; type: cell-based
Experimental: To test this, the expression of myosin 7a, which is a downstream target of Atoh1 signaling, was measured in HEI OC1 cells transfected with the Atoh1-ER-DsRed construct.

organs of Corti = experiment: Organ of Corti explants electroporated with the construct; type: cell-based, mice; settings: 1 μM tamoxifen
Description: The construct was electroporated into neonatal organs of Corti isolated from transgenic mouse pups that express GFP under control of the 5′ Atoh1 enhancer/promoter.

| Molecule | preference of binding to estrogen receptor isoforms [1] | localization of Atoh1-ER-DsRed to the nucleus [2] | time to complete cytoplasmic localization of the fusion protein after removal from the culture media [2] | binding to / activation of the enhancer/promoter region of the Atoh1 gene [4] | Atoh1 mRNA expression (Atoh1 mRNA) | also measured |
| --- | --- | --- | --- | --- | --- | --- |
| O=C(c1ccc(OCCN2CCCCC2)cc1)c1c(-c2ccc(O)cc2)sc2cc(O)ccc12 [raloxifene] | bind preferentially to the alpha receptor |  |  |  |  |  |
| O=c1c(O)c(-c2ccc(O)c(O)c2)oc2cc(O)cc(O)c12 [Quercetin] | selectively binds to the estrogen receptor beta (ERβ) |  |  |  |  |  |
| Flag-Atoh1-ER: construct encoding a flag-tagged Atoh1-ER fusion protein without DsRed (SEQ ID NO: 16) |  |  |  |  |  | Atoh1 promoter/enhancer binding, Atoh1 mRNA transcription and Atoh1 protein translation compared with the flag-Atoh1-ER-DsRed construct (Atoh1 promoter/enhancer): on average higher than, but not significantly different from |
| C[C@]12CC[C@@H]3c4ccc(O)cc4CC[C@H]3[C@@H]1CC[C@@H]2O [17-beta-estradiol] | binds equally well to both receptors |  |  |  |  |  |
| CC/C(=C(\c1ccc(O)cc1)c1ccc(OCCN(C)C)cc1)c1ccccc1 [4OHT] |  | dose-dependent manner | ≤ 2 weeks | dose-dependent increase; also recorded: induced activation of the Atoh1 enhancer region | upregulates the expression of Atoh1 in a dose-dependent manner; also recorded: increase in Atoh1 mRNA expression | DsRed fluorescence in the nuclear fraction ([2]; 1 nM 4OHT for 72 hrs): 848.0+/−29.33 au; DsRed fluorescence in the nuclear fraction ([2]; 1 mM 4OHT for 72 hrs): 3,200.9+/−156.95 au; nuclear localization of the fusion protein ([3]; cochlear spheres from ROSA26-GFP mice, 1 nM, after 48 hrs): punctate nuclear localization; minimum effective dose ([3]; for 2-7 days (FIG. 3)): 1 nM; Atoh1 protein levels (Atoh1 protein): increased the concentration of cytosolic Atoh1 protein in a dose-dependent manner; also recorded: increase in Atoh1 protein levels; myosin 7a labeling (myosin 7a; HEI OC1 cells transfected with Atoh1-ER-DsRed, differentiating conditions (39° C.), 1 mM 4OHT for three days, p<0.001 vs vehicle): 79% |
| CC/C(=C(\c1ccccc1)c1ccc(OCCN(C)C)cc1)c1ccccc1 [tamoxifen] |  | dose-dependent localization | ≤ 2 weeks | dose-dependent increase in binding | increased the expression of Atoh1 in a dose-dependent manner | DsRed fluorescence against increasing Tamoxifen concentration ([2]; 1 μM): increased fluorescence compared to higher (100 μM) and lower doses (1 nM); minimum effective dose ([2]; for 2-7 days, HEK cells (FIG. 2)): 1 nM; myosin 7a positive cells within the spheres (myosin 7a; OC1 cells transfected with Atoh1-ER-DsRed, 3 days in differentiating conditions (39° C.)): significant increase; hair cells in electroporated organs of Corti (organs of Corti): supernumerary hair cells |
